Source: patent US8629240B2, “Peptide ligands for clusterin and uses thereof” (National Research Council of Canada, priority 2009, dated 2014)
Ends that are not written are not given here. Peptide text beside a SMILES is read from it. Alexa Fluor 680 C2‑maleimide = near-infrared dye maleimide, coupled by thioether to the C-terminal Cys; DyLight 680 = DyLight 680 fluorophore

Experiments:
[1] = target: T1, epidermal growth factor ectodomain (EGFR-ED) (Homo sapiens, UniProt P00533); test: SPR specificity test with EGFR ectodomain; assay type: binding; conditions: EGFR-ED 70 nM to 5.63 μM over immobilized peptide
T1 construct: the epidermal growth factor ectodomain (EGFR-ED)
Protocol: (§1) The specificity of the clusterin-peptide interactions was investigated using SPR biosensor analysis and proteins unrelated to clusterin. Immobilization of the peptides and other proteins on the sensor chips and the SPR experiments were conducted as described in Example 4.

[2] = target: T2, rh-clusterin (Homo sapiens, UniProt P10909); test: STD-NMR binding of synthetic peptides to rh-clusterin; conditions: ~1:30 protein:peptide, 298K
T2 construct: made in house; host or cells: HEK-293 cells
Protocol: To confirm direct binding of the peptides of Example 1 to clusterin, the interaction of the synthetic peptides of Example 2 with clusterin was tested using Nuclear Magnetic Resonance Saturation Transfer Difference (STD-NMR; Mayer & Meyer, 2001)
NMR samples were prepared by dissolving 0.15 mM of peptides in 50 mM sodium phosphate buffer, 0.2 mM EDTA, pH 6.5. rh-clusterin (˜1 mg/ml) in 5 mM sodium phosphate buffer, 0.02 mM EDTA, pH 7.4, was added to ˜1:30 protein:peptide ratio.
All NMR experiments were performed at 298K on a Bruker Avance800™ NMR spectrometer equipped with a 5 mm triple-resonance probe with three-axis gradients. Saturation transfer difference (STD) spectra was recorded using WATERGATE version of STD pulse sequence (35) with a 3 s selective saturation pulse applied in the relaxation delay and a 20 ms spinlock pulse with a field strength of 12.25 kHz. The saturation pulse was implemented using a pulse train of 49 ms Gaussian-shaped selective pulse and 1 ms interpulse delay. Each Gaussian-shaped pulse had 1000 points with a 1% truncation and was applied with a field strength of 75.9 Hz. STD spectra were recorded with a spectral width of 16025.64 Hz and 32 K data points. Time domain signals were accumulated with 1024 and 4096 scans for the free and complexed sample, respectively. NMR data were processed using Bruker Xwinnmr 2.6. An exponential weighting function of 7 Hz was applied prior to Fourier transformation and polynomial baseline correction.
NMR signals of peptide P3378 and rh-clusterin were severely overlapped, making it impossible to apply the above saturation pulse exclusively on rh-clusterin resonances without disturbing those of the peptide. In order to identify the binding interactions in the P3378-rh-clusterin complex, a new experimental scheme was implemented by applying the on-resonance saturation pulse at methyl resonances (0.912 ppm) and the off-resonance irradiation at −7.799 ppm (referenced H2O to 4.700 ppm). […]

[3] = target: T3, extracellular domain of the Type II TGF-beta receptor (Homo sapiens, UniProt P37173); test: SPR specificity test with Type II TGF-beta receptor extracellular domain; assay type: binding; conditions: receptor 38 nM to 4.5 μM over immobilized peptide
T3 construct: the extracellular domain of the Type II TGF-beta receptor
Protocol: as §1
FIG. 8 presents SPR biosensor sensorgrams showing the interaction of the extracellular domain of the Type II TGF-beta receptor (38 nM to 4.5 μM) with immobilized P3378 (500 RUs) (FIG. 8A) or P3375 (1200 RUs) (FIG. 8B).

[4] = target: T4, rhCLU (recombinant human clusterin) (Homo sapiens, UniProt P10909); test: SPR biosensor analysis, rhCLU flowed over immobilized peptide; assay type: binding; conditions: for sequence dependence of the interaction with clusterin: concluded from scrambled peptides; for binding of rhCLU to immobilized randomized peptide (Scatchard plot): randomized sequence control peptides
T4 construct: made in house; host or cells: HEK-293 cells
Excerpt: Peptides were immobilized on research-grade CM5 sensor chips by a maleimide coupling method. CM5 sensor chips (research grade) and EDC were purchased from Biosensor AB (Uppsala, Sweden). This thiol coupling generates a stable thioether bond between reactive maleimide groups on the sensor chip surface and the thiol groups of the peptides. A heterobifunctional reagent, SMCC-hydrazide (4-[N-maleimidomethyl]cyclohexane-1 carboxylhydrazide; 99.5% pure; purchased from Molecular Biosciences Inc. (Boulder, Colo.)), was used to introduce reactive maleimido groups to the sensor surface. Immobilization was performed at 25° C. at a flow rate of 5 μL/min. A continuous flow of the HBS-EP buffer (20 mM HEPES, 150 mM NaCl, 3.4 mM EDTA and 0.05% Tween™-20 at pH 7.4) was maintained over the sensor surface. The carboxylated dextran matrix on the sensor surface was activated by an injection of 50 μL of a freshly mixed solution containing 172 μL of 1.2 mM […] (EDC) in 100 mM MES buffer at pH 5.00, and 28 μL of 17.8 mM SMCC-hydrazide in 40% DMF. The ratio of the SMCC:EDC was 2.5:1. Peptide-coupled surfaces were generated by injecting peptides (30-100 μg/ml) in 100 mM MES buffer (at pH 5.0). The amount of peptide immobilized on the activated surface was controlled by altering the contact time with the peptide solution and was between approximately 400 and 500 RU, or 400-500 pg peptide/mm^2. The immobilization procedure was completed by a 50 μL injection of 50 mM cysteine in 1 M sodium chloride and 0.1M sodium acetate (pH 4) to quench excess active maleimide groups.
Protein-peptide interactions were followed using a BIAcore 3000 instrument (Biosensor AB, Uppsala, Sweden). All binding experiments were carried out at 25° C. under a continuous flow of the HBS-EP buffer (20 mM HEPES, 150 mM NaCl, 3.4 mM EDTA and 0.05% Tween-200) at pH 7.4 over the sensor surface at a flow rate of 20 μL/min. Different concentrations of rh-clusterin in the HBS-EP buffer were injected over the peptide-derivatized sensor chips. Dissociation was monitored for up to 300 s post-injection. The surfaces were fully regenerated by 15 s injection of an HBS-EP buffer solution containing 5 mM NaOH. […] Reference responses from control flow cells, containing unmodified dextran surfaces, were subtracted from peptide-containing flow cells, for each analyte injection using the BiaEvaluation software version 3.0 (Biacore AB, Uppsala, Sweden).
The resulting sensorgrams were used for kinetic rate determination through global fitting of the experimental data to a simple 1:1 Langmuir binding model. […] Affinity data (KD) from the binding studies were obtained by plotting the response in RU at the steady state, Req, versus the concentration of clusterin, C, and by fitting these curves to a one-site binding model, Req=C*xRmax/(C+KD) where Rmax is the value in RU at saturation and Req is the observed optical change in RU at each given C.

[5] = test system: 4T1 tumor
Protocol: As a model system, 4T1 mouse mammary carcinoma cell line cells were used to generate tumors in syngeneic BALB/c mice. […] Six to eight weeks old female BALB/c mice were obtained from Charles River. […] A 50 μl 1:1 solution of sterile Matrigel and saline, or the same solution containing 4T1 mouse mammary tumor cells (5×10^6 cells), was injected subcutaneously into the right hind thigh of the animal. Clippers and Nair were used to remove hair from the injection site as well as the lower back and the left thigh of the animals prior to the Matrigel and tumor cell injections. When tumors measured ˜0.5 to 0.8 cm in diameter (6-8 days), the tumor-bearing mice were subjected to in vivo imaging.
Animals were imaged using the following procedures. Animals were anesthetized using isoflurane (3% in O2 at 2 L/min). Prior to the injection of the labeled peptides, animals were subjected to a full body scan to obtain a background fluorescence image. P3378-Alexa680 or P3378R-Alexa680 was administered (25 nmol in 100 μL sterile saline) via the tail vein using a 0.5-ml insulin syringe with a 27-gauge fixed needle. Immediately after, the animal was placed on the heated animals plate (39° C.) of the ART eXplore Optix MX2 imaging system (Advanced Research Technologies, Montreal, Canada). Laser power and counting time per pixel were optimized at 9.6 μW and 0.5 s, respectively. These values remained constant during the entire experiment. The raster scan interval was set at 1.5 mm and was held constant during the acquisition of each image. The data were recorded as Temporal Point-Spread Functions (TPSF), and fluorescence intensity and fluorescence lifetime maps were generated. All images were analyzed using the ART Optix OptiView™ software. Volume data and 3D images were reconstructed using the ART OptiView™ 3D Reconstruction Software Module. All animals were euthanized after the imaging experiments.
Animals were imaged in the ART Optix MX2 small animal imager using three approaches: • a. Mice were injected intravenously (i.v.) via the tail vein with either 5 nanomoles of P3378 peptide labeled with Alexa680, or P3378R peptide labeled with Alexa680; • b. Mice were injected intravenously (i.v.) via the tail vein with either 25 nanomoles of P3378 peptide labeled with Alexa680, or P3378R peptide labeled with Alexa680; • c.

[6] = test system: 4T1 tumor; test: In vivo blocking experiment with excess unlabeled peptide; set-up: species or system mouse
Protocol: To further validate the specificity of the in vivo targeting ability of the P3378-DL680 probe, a blocking experiment using an excess of unlabeled P3378 peptide was carried out. Mice received 25 nmoles of P3378-DL680 alone (n=1) or in combination with 5 μmoles unlabeled P3378 or P3378R peptide (both n=2) in 100 μL sterile saline. Animals in the control groups received 25 nmoles of P3378-DL680 with or without 5 μmoles of the unlabeled scrambled P3378R peptide, whereas the experimental animals were injected with 25 nmoles of P3378-DL680 in combination with 5 μmoles of unlabeled P3378 peptide. […] Furthermore, using the gated NIRF lifetime and the OptiView 3D reconstruction module we selected in each mouse the slice along the Z-axis that contained the highest concentration of P3378-DL680 and determined its relative concentration.

[7] = test system: 4T1 tumor and organs (liver, spleen, pancreas, kidney, heart, lungs); test: Confocal microscopy of probe distribution in 4T1 tumor and organs; assay type: in vivo, mouse; conditions: 25 nmoles, 15 min post-injection, frozen sections
Protocol: Confocal microscopy was used to evaluate the distribution of the P3378-DL680 probe in the 4T1 tumor and various organs (liver, spleen, pancreas, kidney, heart, lungs), harvested 15 min post-injection. […] DAPI staining of the nuclei was used to visualize tissue morphology.

[8] = global fit, one-to-one Langmuir binding model, 25° C.

T4 sequence (P10909 23-227 limits assumed): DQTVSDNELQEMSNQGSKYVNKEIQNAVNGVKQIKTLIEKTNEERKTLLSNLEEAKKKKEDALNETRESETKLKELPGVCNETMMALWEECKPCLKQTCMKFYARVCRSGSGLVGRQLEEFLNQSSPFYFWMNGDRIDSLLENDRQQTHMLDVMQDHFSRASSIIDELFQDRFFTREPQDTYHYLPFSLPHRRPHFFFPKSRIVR
T4 sequence (P10909 228-449 limits assumed): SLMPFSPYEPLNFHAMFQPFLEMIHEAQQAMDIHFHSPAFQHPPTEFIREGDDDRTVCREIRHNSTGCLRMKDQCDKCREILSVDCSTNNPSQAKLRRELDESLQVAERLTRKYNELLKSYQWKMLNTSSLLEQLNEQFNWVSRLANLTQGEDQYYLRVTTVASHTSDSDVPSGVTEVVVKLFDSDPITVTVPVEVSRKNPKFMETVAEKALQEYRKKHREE
T2 sequence (P10909 23-227 limits assumed): as the sequence (P10909 23-227 limits assumed) above
T2 sequence (P10909 228-449 limits assumed): as the sequence (P10909 228-449 limits assumed) above
T1 sequence (P00533 25-645 limits assumed): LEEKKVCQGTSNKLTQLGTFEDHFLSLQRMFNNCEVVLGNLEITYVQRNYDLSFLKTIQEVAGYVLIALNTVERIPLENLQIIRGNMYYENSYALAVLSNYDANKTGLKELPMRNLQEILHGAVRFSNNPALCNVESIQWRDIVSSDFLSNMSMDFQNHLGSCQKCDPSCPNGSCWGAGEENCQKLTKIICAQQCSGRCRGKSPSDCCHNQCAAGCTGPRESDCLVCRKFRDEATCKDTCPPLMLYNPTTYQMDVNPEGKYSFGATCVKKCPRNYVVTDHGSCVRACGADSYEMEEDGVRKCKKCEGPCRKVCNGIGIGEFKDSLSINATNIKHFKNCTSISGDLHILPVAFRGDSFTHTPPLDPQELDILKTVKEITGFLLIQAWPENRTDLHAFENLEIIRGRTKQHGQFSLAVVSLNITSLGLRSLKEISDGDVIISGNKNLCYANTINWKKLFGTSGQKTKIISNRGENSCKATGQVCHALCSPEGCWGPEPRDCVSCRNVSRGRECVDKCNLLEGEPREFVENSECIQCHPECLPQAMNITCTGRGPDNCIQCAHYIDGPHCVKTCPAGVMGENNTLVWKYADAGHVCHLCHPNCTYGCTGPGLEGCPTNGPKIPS
T3 sequence (P37173 23-166 limits assumed): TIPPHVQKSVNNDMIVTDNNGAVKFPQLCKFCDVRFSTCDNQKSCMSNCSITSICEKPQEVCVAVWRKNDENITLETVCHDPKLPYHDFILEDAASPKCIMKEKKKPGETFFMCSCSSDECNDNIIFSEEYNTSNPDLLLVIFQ

Compound: CC(C)C[C@H](NC(=O)[C@H](CCC(N)=O)NC(=O)[C@H](CO)NC(=O)[C@H](Cc1c[nH]c2ccccc12)NC(=O)[C@H](Cc1ccc(O)cc1)NC(=O)[C@@H](NC(=O)[C@@H](N)CC(N)=O)[C@@H](C)O)C(=O)N[C@@H](CC(C)C)C(=O)N[C@@H](Cc1c[nH]cn1)C(=O)N[C@@H](Cc1ccccc1)C(=O)N[C@@H](CCC(N)=O)C(=O)N[C@H](C(=O)N[C@@H](CO)C(=O)NCC(=O)N[C@@H](CO)C(=O)NCC(=O)N[C@@H](CS)C(=O)O)[C@@H](C)O [P3375]
- binding to EGFR-ED [1]: do not bind specifically
- binding to clusterin by STD-NMR [2]: confirmed
- interaction with Type II TGF-beta receptor [3]: no significant signal was observed
- sequence dependence of the interaction with clusterin [4]: not peptide sequence specific
- koff [4, 8]: 0.006 ± 0.0002 s⁻¹
- kon [4, 8]: 11200 M⁻¹ s⁻¹

Compound: CC(C)C[C@H](NC(=O)[C@@H]1CCCN1C(=O)[C@H](CC(C)C)NC(=O)[C@H](C)NC(=O)[C@H](Cc1c[nH]cn1)NC(=O)[C@@H](N)CO)C(=O)N[C@H](C(=O)N[C@@H](Cc1c[nH]c2ccccc12)C(=O)N[C@@H](CO)C(=O)N[C@H](C(=O)N[C@@H](C)C(=O)N[C@@H](C)C(=O)N[C@@H](CO)C(=O)NCC(=O)N[C@@H](CO)C(=O)NCC(=O)N[C@@H](CS)C(=O)O)[C@@H](C)O)[C@@H](C)O [P3376, SHALPLTWSTAA]
- binding to clusterin by STD-NMR [2]: confirmed
- sequence dependence of the interaction with clusterin [4]: not peptide sequence specific

Compound: CC(C)C[C@H](NC(=O)[C@H](Cc1ccc(O)cc1)NC(=O)[C@@H]1CCCN1)C(=O)N[C@@H](Cc1c[nH]cn1)C(=O)N[C@@H](CCC(N)=O)C(=O)N[C@@H](CO)C(=O)N1CCC[C@H]1C(=O)N[C@@H](Cc1c[nH]cn1)C(=O)N[C@@H](Cc1c[nH]c2ccccc12)C(=O)N[C@@H](CCCCN)C(=O)N1CCC[C@H]1C(=O)N[C@@H](CO)C(=O)N[C@@H](CO)C(=O)NCC(=O)N[C@@H](CO)C(=O)NCC(=O)N[C@@H](CS)C(=O)O [P3378R, PYLHQSPHWKPSSGSGC, reference compound] (H-PYLHQSPHWKPSSGSGC-OH)
- accumulation in the kidneys ([5]; mouse, in vivo): faster accumulation

Compound: AWHTLASTSLAPSGSGC (Randomized control for P3376) [P3376R, randomized version of P3376, reference compound]
- binding of rhCLU to immobilized randomized peptide (Scatchard plot) [4]: bound

Compound: LSLYHTNTQFWQSGSGC (Randomized control for P3375) [P3375R, randomized version of P3375, reference compound]
- binding of rhCLU to immobilized randomized peptide (Scatchard plot) [4]: bound

Compound: P3378-Alexa680: P3378 peptide labeled with Alexa Fluor 680 C2-maleimide (HPLSKHPYWSQPSGSGC(Alexa Fluor 680 C2‑maleimide))
- accumulation in the tumor (as well as kidney and bladder) ([5]; 5 or 25 nanomoles i.v., Alexa680 label): accumulation

Compound: P3378-DL680: P3378 peptide labeled with Dylight680 fluorophor (HPLSKHPYWSQPSGSGC(DyLight 680))
- relative concentration of the probe at the tumor site ([6]; in the presence of excess scrambled P3378R peptide vs probe alone): only slightly affected
- relative concentration of the probe at the tumor site, times lower ([6]; in the presence of excess unlabeled P3378 peptide vs probe alone): 3-4 times
- uptake of the fluorescent probe in the 4T1 tumor [7]: specific uptake and accumulation
